PMC12630292 (Journal of Neural Transmission, 2025)
Where two headings read alike, the source gives them in different places.

Tests used:
[1] = molecular target: T1, D1 receptor (Homo sapiens, UniProt P21728); assay: cell-based; conditions: read-out: Emax relative to dopamine, β-arrestin assay D1
[2] = molecular target: D4 receptor (Homo sapiens, UniProt P21917); assay: cell-based; conditions: read-out: Emax relative to dopamine, β-arrestin assay D4
[3] = molecular target: T1, D1 receptor; assay: cell-based; conditions: read-out: Emax relative to dopamine, internalization assay D1
[4] = test system: 5HT2A; conditions: ref Millan et al. [2002]; Newman-Tancredi et al. [2002]; cited from earlier work
[5] = molecular target: D2L receptor (Homo sapiens, UniProt P14416); assay: cell-based; conditions: read-out: Emax relative to dopamine, β-arrestin assay D2L
[6] = molecular target: D2S receptor (Homo sapiens, UniProt P14416); assay: cell-based; conditions: read-out: Emax relative to dopamine, β-arrestin assay D2S
[7] = molecular target: D3 receptor (Homo sapiens, UniProt P35462); assay: cell-based; conditions: read-out: Emax relative to dopamine, β-arrestin assay D3

CN1CCc2cccc3c2[C@H]1Cc1ccc(O)c(O)c1-3 [Apomorphine]
Emax [1]: 28% | Emax [2]: 52% | Emax [3]: 38% | 5HT2A antagonist actions [4]: weak | Emax [5]: 83% | Emax [6]: 90% | Emax [7]: 89%
